Results as given in PMC11671014 (PLOS Pathogens, 2024).
Where “and” joins values, the source holds several entries; their conditions need not be identical. Equal values may be shown once.

Legend:
[1] = test system: HCT116; settings: read-out: HCT116 IC50_72h; 72 h; ref [16]; cited from earlier work
[2] = biological target: T1, PfTyrRS (Plasmodium falciparum, UniProt Q8IAR7); assay: ATP consumption by PfTyrRS (Kinase Glo); assay type: biochemical; settings: Inhibition of PfTyrRS (Kinase Glo) IC50, PfTyrRS 25 nM, ATP 10 μM, tyrosine 200 μM, cognate tRNA^Tyr 4.8 μM, 37°C 1 h
T1 sequence (Q8IAR7 entry or part of it): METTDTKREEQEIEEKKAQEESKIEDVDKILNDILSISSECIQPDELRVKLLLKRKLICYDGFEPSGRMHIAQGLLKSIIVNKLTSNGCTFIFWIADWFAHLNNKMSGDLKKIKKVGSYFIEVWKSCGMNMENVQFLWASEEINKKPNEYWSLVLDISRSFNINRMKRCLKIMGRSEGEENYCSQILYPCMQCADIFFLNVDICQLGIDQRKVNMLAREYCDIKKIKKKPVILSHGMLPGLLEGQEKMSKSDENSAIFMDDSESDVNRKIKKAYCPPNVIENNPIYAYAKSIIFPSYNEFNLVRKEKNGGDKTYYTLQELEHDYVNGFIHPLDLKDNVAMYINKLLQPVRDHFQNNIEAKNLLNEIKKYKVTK
Procedure: Consumption of ATP was measured using a luciferase-based assay as per the manufacturer’s instructions (Kinase-Glo Luminescent Kinase Assay, Promega).

[3] = biological target: T1, PfTyrRS; assay: Differential scanning fluorimetry (DSF) of PfTyrRS; assay type: binding
Procedure: The effect on ML471 and analogues on the thermal stability of TyrRS enzymes was assayed as previously described. […] SYPRO Orange (Sigma-Aldrich; 5,000X concentrate in DMSO) was added to the reaction mixture at a final concentration of 5X. 25 μL of the sample was added into each well of a 96-well qPCR plate (Applied Biosystems). The plate was sealed and analysed using StepOnePlus Real-Time PCR system (Applied Biosystems). The samples were heated from 20°C to 90°C with a 1% continuous gradient. The thermal unfolding curve was plotted as the first derivative curve of the raw fluorescence values. The melting temperature (Tm), defined as the peak of the first derivative curve, was used to assess the thermal stability of protein-ligand complexes.

[4] = test system: P. falciparum (3D7, ring stage) cultures; settings: read-out: P. falciparum 72-h IC50 (3D7); 3D7, 72 h exposure; ref [16]; cited from earlier work

Nc1ncnc2c1ncn2[C@@H]1O[C@H](COS(N)(=O)=O)[C@@H](O)[C@H]1O [AMS, adenosine 5’-monosulfamate, reference compound]
IC50 [1]: 26 nM | IC50 [2]: 51700 nM and 52000 nM | Kd [3]: 1.3 nM | ΔTm at 50 µM ([3]; 2 h, read-out: PfTyrRS binding (DSF) Delta Tm): 13.6 ± 0.7 °C | PfTyrRS Tm ([3]; with sulfamate, ATP, tyrosine and tRNA, apo 49.9 ± 0.6): 63.5 ± 0.7 °C | IC50 [4]: 1.8 ± 0.6 nM
